Read-outs that look alike come from different tables or passages of the source. One block for each molecule: values may come before it.
Legend:
[1] = test system: CYP3A4; test: CYP3A4 enzyme induction assay in cryopreserved primary human hepatocytes (PHH); settings: for Assigned classification CYP3A4: PHH
[2] = test system: CYP; settings: cited from earlier work; for CYP induction in vitro (human hepatocytes): CYP isoforms induced, ref Abadie et al. (2009), Richert et al. (2010), Preissner et al. (2010), Hoffmann et al. (2014)
[3] = test system: CYP2B6; test: CYP2B6 enzyme induction assay in cryopreserved primary human hepatocytes (PHH); format: in vitro ADME; settings: for Assigned classification CYP2B6: PHH;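 for Assigned classification CYP2B6: code 1 means positive inducer and 0 means non-inducer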
[4] = test system: CYP1A2; test: CYP1A2 enzyme induction assay in cryopreserved primary human hepatocytes (PHH); format: in vitro ADME; settings: for Prediction in vivo inducer: Cmax/F2 >0.5 criterion; for Assigned classification CYP1A2: PHH;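 for Assigned classification CYP1A2: code 1 means positive inducer and 0 means non-inducer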
[5] = test system: CYP2B6; test: CYP2B6 enzyme induction assay in cryopreserved HepaRG cells (bupropion probe, LC/MS); format: in vitro ADME, human; settings: for Prediction in vivo inducer: Cmax/F2 >0.5 criterion; for F2: in vitro concentration producing 2-fold induction; for Assigned classification CYP2B6: HepaRG; for Assigned classification CYP2B6: key: 1=Positive=inducer; 0=Negative=non-inducer
[6] = test system: CYP1A2; test: CYP1A2 enzyme induction assay in cryopreserved HepaRG cells (phenacetin probe, LC/MS); format: in vitro ADME, human; settings: for Prediction in vivo inducer: Cmax/F2 >0.5 criterion; for F2: in vitro concentration producing 2-fold induction; for Assigned classification CYP1A2: HepaRG; for Assigned classification CYP1A2: key: 1=Positive=inducer; 0=Negative=non-inducer
[7] = test system: CYP3A4; test: CYP3A4 enzyme induction assay in cryopreserved HepaRG cells (midazolam probe, LC/MS); format: in vitro ADME, human; settings: for Assigned classification CYP3A4: HepaRG; for Assigned classification CYP3A4: key: 1=Positive=inducer; 0=Negative=non-inducer
[8] = cited from earlier work
[9] = test system: CYP3A4; settings: cited from earlier work; for CYP induction in vivo literature reference: CYP3A4: human in vivo, CYP named without remark = induced, ref references in the cell, Washington University database, Hoffmann et al. (2014), Pelkonen et al. (2008), Hukkanen et al. (2012)
[10] = test system: CYP1A2; settings: cited from earlier work
[11] = human in vivo plasma concentration, normal dose
[12] = human in vivo, normal dose (Table 10)

- F2 ([1]; CYP3A4, PHH): 0.65 to 1.95 µM
- Induction in vitro ([1]; CYP3A4, PHH): Yes
- Prediction in vivo inducer ([1]; CYP3A4, PHH): Yes
- Assigned classification CYP3A4 ([1]; Lab 1, batch 0 6 A): 1
- Assigned classification CYP3A4 ([1]; Lab 1, batch 4 0 8): 1
- Assigned classification CYP3A4 ([1]; Lab 1, batch 8 0 8): 1
- Assigned classification CYP3A4 ([1]; Lab 2, batch 0 6 A): 1
- Assigned classification CYP3A4 ([1]; Lab 2, batch 4 0 8): 1
- Assigned classification CYP3A4 ([1]; Lab 2, batch 8 0 8): 1
- Assigned classification CYP3A4 ([1]; Lab 3, batch 0 6 A): 1
- Assigned classification CYP3A4 ([1]; Lab 3, batch 4 0 8): 1
- Assigned classification CYP3A4 ([1]; Lab 3, batch 8 0 8): 1
- F2 ([3]; CYP2B6, PHH): 5.85 µM
- Induction in vitro ([3]; CYP2B6, PHH): Yes
- Prediction in vivo inducer ([3]; CYP2B6, PHH): Yes
- Assigned classification CYP2B6 ([3]; Lab 1, batch 0 6 A): 1
- Assigned classification CYP2B6 ([3]; Lab 1, batch 4 0 8): 1
- Assigned classification CYP2B6 ([3]; Lab 1, batch 8 0 8): 1
- Assigned classification CYP2B6 ([3]; Lab 2, batch 0 6 A): 1
- Assigned classification CYP2B6 ([3]; Lab 2, batch 4 0 8): 0
- Assigned classification CYP2B6 ([3]; Lab 2, batch 8 0 8): 1
- Assigned classification CYP2B6 ([3]; Lab 3, batch 0 6 A): 1
- Assigned classification CYP2B6 ([3]; Lab 3, batch 4 0 8): 1
- Assigned classification CYP2B6 ([3]; Lab 3, batch 8 0 8): 1
- Prediction in vivo inducer ([4]; CYP1A2, PHH, listed as Bosentan): No
- Prediction in vivo inducer ([4]; CYP1A2, PHH, listed as bosentan): non-inducers
- Induction in vitro ([4]; CYP1A2, PHH, positive in one donor in each of the three laboratories): No
- Assigned classification CYP1A2 ([4]; Lab 1, batch 0 6 A): 0
- Assigned classification CYP1A2 ([4]; Lab 1, batch 4 0 8): 0
- Assigned classification CYP1A2 ([4]; Lab 1, batch 8 0 8): 0
- Assigned classification CYP1A2 ([4]; Lab 2, batch 0 6 A): 0
- Assigned classification CYP1A2 ([4]; Lab 2, batch 4 0 8): 0
- Assigned classification CYP1A2 ([4]; Lab 2, batch 8 0 8): 1
- Assigned classification CYP1A2 ([4]; Lab 3, batch 0 6 A): 1
- Assigned classification CYP1A2 ([4]; Lab 3, batch 4 0 8): 0
- Assigned classification CYP1A2 ([4]; Lab 3, batch 8 0 8): 0
- Prediction in vivo inducer ([5]; CYP2B6, HepaRG cells, listed as Bosentan): Yes
- Prediction in vivo inducer ([5]; CYP2B6, HepaRG cells, listed as bosentan): predicted as positive inducers
- F2 ([5]; CYP2B6, HepaRG cells): 2.60 to 7.80 µM
- Induction in vitro ([5]; CYP2B6, HepaRG cells, positive in one batch in each of the three laboratories): Yes
- Assigned classification CYP2B6 ([5]; Lab 1, batch 20): 1
- Assigned classification CYP2B6 ([5]; Lab 1, batch 35): 1
- Assigned classification CYP2B6 ([5]; Lab 1, batch 36): 0
- Assigned classification CYP2B6 ([5]; Lab 2, batch 20): 1
- Assigned classification CYP2B6 ([5]; Lab 2, batch 35): 0
- Assigned classification CYP2B6 ([5]; Lab 2, batch 36): 0
- Assigned classification CYP2B6 ([5]; Lab 3, batch 20): 0
- Assigned classification CYP2B6 ([5]; Lab 3, batch 35): 1
- Assigned classification CYP2B6 ([5]; Lab 3, batch 36): 0
- Prediction in vivo inducer ([6]; CYP1A2, HepaRG cells, listed as Bosentan): Yes
- Prediction in vivo inducer ([6]; CYP1A2, HepaRG cells, listed as bosentan): CYP1A2 induction would be expected
- F2 ([6]; CYP1A2, HepaRG cells): 2.60 to 7.80 µM
- Induction in vitro ([6]; CYP1A2, HepaRG cells, positive in one batch in each of the three laboratories): Yes
- Assigned classification CYP1A2 ([6]; Lab 1, batch 20): 1
- Assigned classification CYP1A2 ([6]; Lab 1, batch 35): 1
- Assigned classification CYP1A2 ([6]; Lab 1, batch 36): 1
- Assigned classification CYP1A2 ([6]; Lab 2, batch 20): 1
- Assigned classification CYP1A2 ([6]; Lab 2, batch 35): 1
- Assigned classification CYP1A2 ([6]; Lab 2, batch 36): 1
- Assigned classification CYP1A2 ([6]; Lab 3, batch 20): 1
- Assigned classification CYP1A2 ([6]; Lab 3, batch 35): 1
- Assigned classification CYP1A2 ([6]; Lab 3, batch 36): 0
- F2 ([7]; CYP3A4, HepaRG cells): 0.29 µM
- Induction in vitro ([7]; CYP3A4, HepaRG cells): Yes
- Prediction in vivo inducer ([7]; CYP3A4, HepaRG cells): Yes
- Assigned classification CYP3A4 ([7]; Lab 1, batch 20): 1
- Assigned classification CYP3A4 ([7]; Lab 1, batch 35): 1
- Assigned classification CYP3A4 ([7]; Lab 1, batch 36): 1
- Assigned classification CYP3A4 ([7]; Lab 2, batch 20): 1
- Assigned classification CYP3A4 ([7]; Lab 2, batch 35): 1
- Assigned classification CYP3A4 ([7]; Lab 2, batch 36): 1
- Assigned classification CYP3A4 ([7]; Lab 3, batch 20): 1
- Assigned classification CYP3A4 ([7]; Lab 3, batch 35): 1
- Assigned classification CYP3A4 ([7]; Lab 3, batch 36): 1
SMILES: COc1ccccc1Oc1c(NS(=O)(=O)c2ccc(C(C)(C)C)cc2)nc(-c2ncccn2)nc1OCCO [Bosentan hydrate]
- CYP induction in vitro (human hepatocytes) [2]: CYP3A4
- Cmax [8, 11]: 5.8 µM
- Cmax [8, 12]: 5.8 µM
- Induction in vivo ([9]; CYP3A4, human in vivo reference classification (Table 11)): Yes
- CYP induction in vivo literature reference: CYP3A4 [9]: CYP1A2 NO studies CYP2B6 NO studies CYP 3A4 ([Weber et al., 1999a], [Weber et al., 1999b]; [van Giersbergen et al., 2002a], [van Giersbergen et al., 2002b]; Dingemanse and van Giersbergen, 2004)

- F2 ([1]; CYP3A4, PHH): 3.66 µM
- F2 ([3]; CYP2B6, PHH): 33 µM
- F2 ([5]; CYP2B6, HepaRG cells): 11.0 to 33.0 µM
- F2 ([6]; CYP1A2, HepaRG cells): 11 µM
- F2 ([7]; CYP3A4, HepaRG cells): 11 µM
SMILES: O=C1C(CC[S+]([O-])c2ccccc2)C(=O)N(c2ccccc2)N1c1ccccc1 (stereo not shown) [Sulfinpyrazone]
- Induction in vivo ([10]; CYP1A2, human, ref Table 1): Yes
- CYP induction in vivo literature reference: CYP1A2 ([10]; human in vivo, CYP named without remark = induced, ref references in the cell, Washington University database, Hoffmann et al. (2014), Pelkonen et al. (2008), Hukkanen et al. (2012)): CYP1A2
- CYP2B6 induction in human hepatocytes ([2]; CYP2B6, ref Faucette et al., 2004): demonstrated
- CYP induction in vitro (human hepatocytes) [2]: CYP1A2, CYP2B6, CYP3A4
- Cmax [8, 11]: 45 µM
- Cmax [8, 12]: 45 µM
- CYP induction in vivo literature reference: CYP3A4 [9]: CYP3A4

Reference: paper PMC6718736, “Validation of in vitro methods for human cytochrome P450 enzyme induction: Outcome of a multi-laboratory study” (Toxicology in Vitro, 2019)
